The text below walks through data of US11459324B2, “O-glycoprotein-2-acetamido-2-deoxy-3-D-glycopyranosidase inhibitors” (BIOGEN MA INC., priority 2018, dated 2022).

SMILES strings stand for the structures. Where only a bound is given, the exact number is not on record here.

The target of this test is T1, Recombinant full length human OGA enzyme (Homo sapiens, UniProt O60502).
T1 construct: Recombinant full length human OGA enzyme was purchased from Origene; purchased Origene
T1 sequence (O60502 1-916): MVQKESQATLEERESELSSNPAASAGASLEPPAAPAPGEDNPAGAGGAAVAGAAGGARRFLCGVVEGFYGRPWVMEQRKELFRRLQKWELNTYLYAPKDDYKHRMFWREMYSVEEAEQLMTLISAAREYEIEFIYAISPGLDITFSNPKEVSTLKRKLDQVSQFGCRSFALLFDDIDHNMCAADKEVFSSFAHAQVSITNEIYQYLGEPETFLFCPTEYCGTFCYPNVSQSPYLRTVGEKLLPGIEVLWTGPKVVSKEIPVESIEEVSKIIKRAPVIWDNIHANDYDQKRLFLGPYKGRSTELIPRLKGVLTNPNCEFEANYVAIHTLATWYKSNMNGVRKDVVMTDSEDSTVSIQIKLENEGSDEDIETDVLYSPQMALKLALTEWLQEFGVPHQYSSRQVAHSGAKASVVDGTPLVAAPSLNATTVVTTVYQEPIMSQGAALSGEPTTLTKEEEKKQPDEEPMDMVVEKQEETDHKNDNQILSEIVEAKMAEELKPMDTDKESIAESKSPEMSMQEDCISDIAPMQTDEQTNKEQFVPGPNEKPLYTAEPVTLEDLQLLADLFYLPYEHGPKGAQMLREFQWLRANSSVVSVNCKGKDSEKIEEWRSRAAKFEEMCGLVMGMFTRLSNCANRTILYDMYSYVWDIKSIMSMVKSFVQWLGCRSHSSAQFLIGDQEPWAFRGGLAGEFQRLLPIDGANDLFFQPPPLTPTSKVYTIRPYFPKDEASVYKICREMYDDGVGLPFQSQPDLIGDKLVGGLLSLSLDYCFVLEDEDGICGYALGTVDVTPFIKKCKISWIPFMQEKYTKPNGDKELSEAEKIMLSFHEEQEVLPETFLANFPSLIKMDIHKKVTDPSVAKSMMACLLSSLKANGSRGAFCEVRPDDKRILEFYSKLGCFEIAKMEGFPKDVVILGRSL
In words: OGA Enzyme Inhibition Biochemical Assay. The note with it: 1 nM OGA, 100 μM 4-MUGlcNAc (Km), pH 6.4, 90 minutes at room temperature, 10-point dose-response from 20 μM. The gist of the method: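 Full-length human OGA at 1 nM with 100 μM 4-MUGlcNAc (Km) in McIlvaine buffer pH 6.4 plus 0.01% BSA, 90 min at room temperature, then glycine pH 10 quench. Fluorescence read at Ex 355/Em 460 nm. 10-point, 4-fold dose-response from 20 μM, 4-parameter variable-slope fit.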

One may read the IC50 as the point on the concentration scale where inhibition reaches its midpoint. As for `CC(=O)Nc1ncc(CN2CCC[C@@H]([C@H](C)c3ncc(F)cn3)C2)s1` (single isomer, unassigned) [Example 2-30], the concentration for half-maximal inhibition (IC50) amounted to 0.032 µM.

For `COc1cc(C[C@H]2CCN(Cc3sc(NC(C)=O)nc3F)C2)ncn1` [Example 3-31, (R)-N-(4-fluoro-5-((3-((6-methoxypyrimidin-4-yl)methyl)pyrrolidin-1-yl)methyl)thiazol-2-yl)acetamide], the half-inhibitory concentration (IC50) was found to be 0.014 µM.

On to `CC(=O)Nc1ncc(CN2C[C@@H](Cc3ncc(F)cn3)[C@H](C)C2)s1` (relative stereo) [Example 2-22, N-(5-(((trans)-3-((5-fluoropyrimidin-2-yl)methyl)-4-methylpyrrolidin-1-yl)methyl)thiazol-2-yl)acetamide], for which the IC50 is 0.036 µM.

`CC(=O)Nc1ncc(CN2C[C@@H](Cc3ncc(F)cn3)C[C@@H]2C)s1` (single isomer, unassigned) [Example 2-21]: the half-maximal inhibitory concentration (IC50) came out at 0.108 µM.

Turning to `CC(=O)Nc1ncc(CN2CC(Cc3ncc(F)cn3)CC2C)s1` (stereo not drawn) [Example 2-17, N-(5-((4-((5-fluoropyrimidin-2-yl)methyl)-2-methylpyrrolidin-1-yl)methyl)thiazol-2-yl)acetamide], the 50% inhibitory concentration (IC50) amounted to 0.002 µM.

Turning to `CC(=O)Nc1ncc(CN2CCCC(Cc3nccs3)C2)s1` (stereo not drawn) [Example 1-39, N-(5-((3-(thiazol-2-ylmethyl)piperidin-1-yl)methyl)thiazol-2-yl)acetamide], the IC50 turned out to be 0.011 µM.

On to `CC(=O)Nc1ncc(CN2CCC[C@H](Cc3ncc(C(F)(F)F)cn3)C2)s1` [Example 2-9, (R)-N-(5-((3-((5-(trifluoromethyl)pyrimidin-2-yl)methyl)piperidin-1-yl)methyl)thiazol-2-yl)acetamide], for which the IC50 was found to be 0.03 µM.

Turning to `CC(=O)Nc1nc(F)c(CN2C[C@H](Cc3noc(C)n3)C[C@@H]2C)s1` (single isomer, unassigned) [Example 4-12 Peak 2], the half-maximal inhibitory concentration (IC50) is less than 0.001 µM.

On to `COc1cccc(CC2CCCN(Cc3cnc(NC(C)=O)s3)C2)c1` (stereo not drawn) [Example 1-3, N-(5-((3-(3-methoxybenzyl)piperidin-1-yl)methyl)thiazol-2-yl)acetamide], for which the IC50 is 0.033 µM.

Consider `COc1cnn(CC2CCCN(Cc3cnc(NC(C)=O)s3)C2)c1` (stereo not drawn) [Example 4-8, N-(5-((3-((4-methoxy-1H-pyrazol-1-yl)methyl)piperidin-1-yl)methyl)thiazol-2-yl)acetamide], for which the half-inhibitory concentration (IC50) turned out to be 0.36 µM.

For the compound `CC(=O)Nc1nc(F)c(CN2C[C@@H](Cc3noc(C)n3)CC[C@@H]2C)s1` [Example 4-16, N-(4-fluoro-5-(((2S,5R)-2-methyl-5-((5-methyl-1,2,4-oxadiazol-3-yl)methyl)piperidin-1-yl)methyl)thiazol-2-yl)acetamide], the half-inhibitory concentration (IC50) is less than 0.001 µM.

As for `CC(=O)Nc1ncc(CN2CCC[C@H](Cc3ccc(Cl)cc3)C2)s1` (stereo in doubt) [Example 4-25, N-(5-((3-(4-chlorobenzyl)piperidin-1-yl)methyl)thiazol-2-yl)acetamide], the IC50 is 0.0089 µM.

As for `CC(=O)Nc1ncc(CN2CC[C@H](Cc3ncc(F)c(C)n3)C2)s1` [Example 3-11, (R)-N-(5-((3-((5-fluoro-4-methylpyrimidin-2-yl)methyl)pyrrolidin-1-yl)methyl)thiazol-2-yl)acetamide], the 50% inhibitory concentration (IC50) worked out at 0.011 µM.

For the compound `CC(=O)Nc1ncc(CN2CCCC(Cn3cc(C4CC4)cn3)C2)s1` (stereo not drawn) [Example 4-6, N-(5-((3-((4-cyclopropyl-1H-pyrazol-1-yl)methyl)piperidin-1-yl)methyl)thiazol-2-yl)acetamide], the half-maximal inhibitory concentration (IC50) stood at 0.54 µM.

Take `CC(=O)Nc1ncc(CN2CCCC(Cc3csc(C)n3)C2)s1` (stereo not drawn) [Example 1-36, N-(5-((3-((2-methylthiazol-4-yl)methyl)piperidin-1-yl)methyl)thiazol-2-yl)acetamide]: the concentration for half-maximal inhibition (IC50) was determined as 0.03 µM.

In the case of `COc1ccnc(CC2CCN(Cc3cnc(NC(C)=O)s3)C2)c1` (stereo not drawn) [Example 1-21, N-(5-((3-((4-methoxypyridin-2-yl)methyl)pyrrolidin-1-yl)methyl)thiazol-2-yl)acetamide], the IC50 is 0.013 µM.

Turning to `CC(=O)Nc1ncc(CN2CC(F)CC(Cc3ncc(F)cn3)C2)s1` (stereo not drawn) [Example 3-2, N-(5-((3-fluoro-5-((5-fluoropyrimidin-2-yl)methyl)piperidin-1-yl)methyl)thiazol-2-yl)acetamide], the IC50 turned out to be 0.011 µM.

As to `CC(=O)Nc1ncc(CN2CCCC(Cc3cncc(F)c3)C2)s1` (stereo not drawn) [Example 1-12, N-(5-((3-((5-fluoropyridin-3-yl)methyl)piperidin-1-yl)methyl)thiazol-2-yl)acetamide], the IC50 is 0.007 µM.

In the case of `COc1cc(C[C@H]2CCCN(Cc3cnc(NC(C)=O)s3)C2)ncn1` [Example 3-23, (R)-N-(5-((3-((6-methoxypyrimidin-4-yl)methyl)piperidin-1-yl)methyl)thiazol-2-yl)acetamide], the IC50 is 0.0013 µM.

For `CC(=O)Nc1ncc(CN2CC[C@H](C)[C@@H](Cc3ncc(F)cn3)C2)s1` (single isomer, unassigned) [Example 2-37], the IC50 is 0.002 µM.

On to `CC(=O)Nc1ncc(CN2CCC[C@H](Cc3ccc(C(F)F)cn3)C2)s1` [Example 3-5, (R)-N-(5-((3-((5-(difluoromethyl)pyridin-2-yl)methyl)piperidin-1-yl)methyl)thiazol-2-yl)acetamide], for which the concentration for half-maximal inhibition (IC50) is 0.002 µM.

For the compound `CC(=O)Nc1ncc(CN2CC(Cc3noc(C)n3)CC[C@@H]2C)s1` (stereo partly drawn) [Example 4-17, N-(5-(((2S)-2-methyl-5-((5-methyl-1,2,4-oxadiazol-3-yl)methyl)piperidin-1-yl)methyl)thiazol-2-yl)acetamide], the IC50 is less than 0.001 µM.

For the compound `COc1cc(C[C@H]2CCCN(Cc3sc(NC(C)=O)nc3F)C2)ncn1` [Example 3-22, (R)-N-(4-fluoro-5-((3-((6-methoxypyrimidin-4-yl)methyl)piperidin-1-yl)methyl)thiazol-2-yl)acetamide], the half-inhibitory concentration (IC50) was less than 0.001 µM.

Consider `CC(=O)Nc1ncc(CN2CCCC(Cn3ccnn3)C2)s1` (stereo not drawn) [Example 4-20, N-(5-((3-((1H-1,2,3-triazol-1-yl)methyl)piperidin-1-yl)methyl)thiazol-2-yl)acetamide], for which the half-inhibitory concentration (IC50) amounted to 0.055 µM.

Regarding `CC(=O)Nc1ncc(CN2CCCC(C)(Cc3ncc(F)cn3)C2)s1` (stereo not drawn) [Example 2-34, N-(5-((3-((5-fluoropyrimidin-2-yl)methyl)-3-methylpiperidin-1-yl)methyl)thiazol-2-yl)acetamide], the IC50 was determined as 0.45 µM.

With `COc1cc(CC2CCN(Cc3cnc(NC(C)=O)s3)C2)ccn1` (stereo not drawn) [Example 1-19, N-(5-((3-((2-methoxypyridin-4-yl)methyl)pyrrolidin-1-yl)methyl)thiazol-2-yl)acetamide], the IC50 is 0.01 µM.

Regarding `CC(=O)Nc1ncc(CN2CCC[C@H]([C@H](C)c3ncc(F)cn3)C2)s1` (single isomer, unassigned) [Example 2-32], the IC50 was 0.33 µM.

Consider `CC(=O)Nc1ncc(CN2CCC(F)(F)C(Cc3ncc(F)cn3)C2)s1` (stereo not drawn) [Example 2-14, N-(5-((4,4-difluoro-3-((5-fluoropyrimidin-2-yl)methyl)piperidin-1-yl)methyl)thiazol-2-yl)acetamide], for which the IC50 was found to be 0.012 µM.

Consider `COc1cc(C[C@H]2C[C@@H](C)N(Cc3sc(NC(C)=O)nc3F)C2)ncn1` [Example 3-45, N-(4-fluoro-5-(((2R,4R)-4-((6-methoxypyrimidin-4-yl)methyl)-2-methylpyrrolidin-1-yl)methyl)thiazol-2-yl)acetamide], for which the IC50 came out at 0.0044 µM.

As to `CC(=O)Nc1ncc(CN2CCC(C)(Cc3ncc(F)cn3)C2)s1` (stereo not drawn) [Example 2-35, N-(5-((3-((5-fluoropyrimidin-2-yl)methyl)-3-methylpyrrolidin-1-yl)methyl)thiazol-2-yl)acetamide], the IC50 was determined as 1.6 µM.

With `CC(=O)Nc1ncc(CN2CCCC(Cc3cccnc3)C2)s1` (stereo not drawn) [Example 1-27, N-(5-((3-(pyridin-3-ylmethyl)piperidin-1-yl)methyl)thiazol-2-yl)acetamide], the concentration for half-maximal inhibition (IC50) was found to be 0.011 µM.

With `CC(=O)Nc1nc(F)c(CN2CC[C@H](Cc3ccnc(C)c3)C2)s1` [Example 3-33, (S)—N-(4-fluoro-5-((3-((2-methylpyridin-4-yl)methyl)pyrrolidin-1-yl)methyl)thiazol-2-yl)acetamide], the IC50 came out at 0.0048 µM.

Regarding `CC(=O)Nc1nc(F)c(CN2CC[C@H](Cc3cc(C)nc(C)c3)C2)s1` [Example 3-24, (S)—N-(5-((3-((2,6-dimethylpyridin-4-yl)methyl)pyrrolidin-1-yl)methyl)-4-fluorothiazol-2-yl)acetamide], the concentration for half-maximal inhibition (IC50) is less than 0.001 µM.
